Data from ChEMBL document CHEMBL1921691, “Synthesis and growth regulatory activity of a prototype member of a new family of aminothiol radioprotectors” (Bioorg Med Chem Lett, 2011).
Active and inactive are the calls of the source. The rule behind the calls is not given here.

Test system: Rattus norvegicus
Assay: Protection against 17.33 Gy radiation induced-dermatitis in rat compound administered topically 4 times in 2 hrs prior irradiation measured after 13 days
Assay type: functional, organism-based
Conditions: not given

Row | SMILES | Activity
1 | CNCC(CS)CNC | Active

Organism: Homo sapiens
Assay: Antiproliferative activity against log phase culture of human fibroblasts assessed as growth inhibition after 4 days
Assay type: functional
Conditions: Fibroblast

Row | SMILES | growth inhibition (GI)
2 | CCNCCCCNCCCCNC/C=C(/CS)CNCCCCNCCCCNCC | Active
3 | CNCC(CS)CNC | Active
4 | CCNCCCCNCCCCNCCCCNCCCCNC/C=C(/CS)CNCCCCNCCCCNCCCCNCCCCNCC | Active
5 | CCNCCCCNCCCCNCCCCNC/C=C(/CS)CNCCCCNCCCCNCCCCNCC | Active
6 | CCNCCCCNC/C=C(/CS)CNCCCCNCC | Active
